The source made the active and inactive calls. No cut-off for these calls is given here.
Key:
[1] = biological target: Replicase polyprotein 1ab (Severe acute respiratory syndrome coronavirus 2) (UniProt P0DTD1); assay: Binding affinity to recombinant SARS-CoV-2 Nsp9 at 10 to 50 uM by Mass spectrometry analysis; conditions: dose 10-50 µM
[2] = biological target: Replicase polyprotein 1ab (Severe acute respiratory syndrome coronavirus 2) (UniProt P0DTD1); assay: Binding affinity to recombinant SARS-CoV-2 Nsp9 at 50 uM by Mass spectrometry analysis
[3] = biological target: Replicase polyprotein 1ab (Severe acute respiratory syndrome coronavirus 2) (UniProt P0DTD1); assay: Binding affinity to recombinant SARS-CoV-2 Nsp9 at 10 uM by Mass spectrometry analysis relative to control
[4] = biological target: Replicase polyprotein 1ab (Severe acute respiratory syndrome coronavirus 2) (UniProt P0DTD1); assay: Binding affinity to recombinant SARS-CoV-2 Nsp9 at 50 uM by Mass spectrometry analysis relative to control
[5] = biological target: Replicase polyprotein 1ab (Severe acute respiratory syndrome coronavirus 2) (UniProt P0DTD1); assay: Binding affinity to SARS-CoV-2 Nsp9 at 25 uM by LC-MS/MS analysis relative to control
[6] = biological target: Replicase polyprotein 1ab (Severe acute respiratory syndrome coronavirus 2, UniProt P0DTD1); assay: Binding affinity to recombinant SARS-CoV-2 Nsp9 assessed as dissociation constant by Mass spectrometry analysis

SMILES	Activity [1]	Activity [3] [%]	Activity [4] [%]	other results
C=C1[C@@H]2C[C@@]3([C@@H]1O)[C@@H](CC2=O)[C@@]12[C@@H]4[C@@H]3C[C@@H]1[C@@](C)(CC[C@@H]2O)CN4CC	inactive	–	–	–
C=C1C[C@]23C[C@@]1(O)CC[C@H]2[C@@]12C=C[C@H](O)[C@](C)(C(=O)O1)[C@H]2[C@@H]3C(=O)O	–	–	–	Activity [2]: Active
C=C1C(=O)[C@]23[C@@H](O)[C@H]1CC[C@H]2[C@@]12COC3(O)C[C@@H]1C(C)(C)CC[C@@H]2O	–	0	0.04	–
C=C1C[C@]23C4C5N(C)C[C@]6(C)C[C@H](O)C[C@@]5([C@@H]2[C@H](OC(=O)/C(C)=C/CO)[C@H](OC(=O)/C(C)=C/C)[C@H]14)[C@]6(O)[C@@H](O)[C@@H]3O (stereo partly drawn)	inactive	–	–	–
C=C1C(=O)[C@]23[C@H](O)[C@@H]1CC[C@H]2[C@@]12C(O)[C@@]3(O)C(=O)[C@@H]1C(C)(C)CC[C@@H]2O (stereo partly drawn)	–	0.05	0.38	–
C=C1C[C@]23C4C5N(C)C[C@]6(C)C[C@H](O)C[C@@]5([C@@H]2[C@H](OC(=O)c2ccc(O)cc2)[C@H](OC(=O)/C(C)=C/C)[C@H]14)[C@]6(O)[C@@H](O)[C@@H]3O (stereo partly drawn)	inactive	–	–	–
C=C1C(=O)[C@]23[C@H](O)[C@@H]1C[C@@H](O)[C@H]2[C@]12CCCC(C)(C)[C@H]1[C@H](O)[C@@]3(O)OC2	–	0.15	0.89	–
C=C1[C@H]2CC[C@H]3[C@@]45CO[C@](O)([C@@H](O)[C@@H]4C(C)(C)CC[C@@H]5O)[C@@]3([C@@H]1O)[C@@H]2O	–	2	16	–
C=C1C(=O)[C@]23[C@H](O)[C@@H]1[C@@H](O)C[C@H]2[C@]12CCCC(C)(C)[C@H]1[C@H](O)[C@@]3(O)OC2	inactive	0	0	–
C=C1C(=O)[C@]23[C@H](O)[C@@H]1CC[C@H]2[C@@]12CO[C@@]3(O)[C@@H](O)[C@@H]1C(C)(C)CC[C@@H]2O	–	0.71	1	Activity [5]: Active
C=C1C[C@]23C4C5N(C)C[C@]6(C)C[C@H](O)C[C@@]5([C@@H]2[C@H](OC(=O)/C(C)=C/C)[C@H](OC(=O)/C(C)=C/C)[C@H]14)[C@]6(O)[C@@H](O)[C@@H]3O (stereo partly drawn)	inactive	–	–	–
CC(C)[C@]1(O)C(OC(=O)c2ccc[nH]2)[C@@]2(O)[C@@]3(C)C[C@]4(O)O[C@@]5([C@H](O)[C@@H](C)CC[C@]35O)[C@@]2(O)[C@@]14C (stereo partly drawn)	–	–	–	Kd [6]: 48 µM; Activity [5]: Active
C=C1C(=O)[C@@]23[C@H]4O[C@H]5O[C@]2(O)[C@@H](O)[C@@H]2C(C)(C)CC[C@H](O)[C@]52[C@@H]3CC[C@H]14	–	0.27	1	–

Source: ChEMBL document CHEMBL5390290, “Discovery of Anti-SARS-CoV-2 Nsp9 Binders from Natural Products by a Native Mass Spectrometry Approach” (J Nat Prod, 2023)
